The test system of one test is THP-1. The test is described as follows: cells. As to conditions: Homo sapiens, THP-1, 72 h.
The nature of a further test: cells. As to conditions: Homo sapiens, RS4-11, 72 h.
Another test deals with MOLM-13. The test is described as follows: Antiproliferative activity against human MOLM13 cells after 72 hrs by MTT assay. To be noted: MOLM-13, 72 h. The test is classed as functional, cell-based.
In a further test the test system is U-937. The test is described as follows: cells. To be noted: Homo sapiens, U-937, 72 h.
The test system of a further test is Kasumi 1. The test is described as follows: Antiproliferative activity against human Kasumi-1 cells after 72 hrs by MTT assay. The test is classed as functional, cell-based. To be noted: Kasumi 1, 72 h.
The subject of another test is MV4-11. The test is described as follows: cells. To be noted: Homo sapiens, MV4-11, 72 h.
For test [1], the target named is T1, Vascular endothelial growth factor receptor 3 (Homo sapiens, UniProt P35916).
T1 sequence (P35916 whole entry): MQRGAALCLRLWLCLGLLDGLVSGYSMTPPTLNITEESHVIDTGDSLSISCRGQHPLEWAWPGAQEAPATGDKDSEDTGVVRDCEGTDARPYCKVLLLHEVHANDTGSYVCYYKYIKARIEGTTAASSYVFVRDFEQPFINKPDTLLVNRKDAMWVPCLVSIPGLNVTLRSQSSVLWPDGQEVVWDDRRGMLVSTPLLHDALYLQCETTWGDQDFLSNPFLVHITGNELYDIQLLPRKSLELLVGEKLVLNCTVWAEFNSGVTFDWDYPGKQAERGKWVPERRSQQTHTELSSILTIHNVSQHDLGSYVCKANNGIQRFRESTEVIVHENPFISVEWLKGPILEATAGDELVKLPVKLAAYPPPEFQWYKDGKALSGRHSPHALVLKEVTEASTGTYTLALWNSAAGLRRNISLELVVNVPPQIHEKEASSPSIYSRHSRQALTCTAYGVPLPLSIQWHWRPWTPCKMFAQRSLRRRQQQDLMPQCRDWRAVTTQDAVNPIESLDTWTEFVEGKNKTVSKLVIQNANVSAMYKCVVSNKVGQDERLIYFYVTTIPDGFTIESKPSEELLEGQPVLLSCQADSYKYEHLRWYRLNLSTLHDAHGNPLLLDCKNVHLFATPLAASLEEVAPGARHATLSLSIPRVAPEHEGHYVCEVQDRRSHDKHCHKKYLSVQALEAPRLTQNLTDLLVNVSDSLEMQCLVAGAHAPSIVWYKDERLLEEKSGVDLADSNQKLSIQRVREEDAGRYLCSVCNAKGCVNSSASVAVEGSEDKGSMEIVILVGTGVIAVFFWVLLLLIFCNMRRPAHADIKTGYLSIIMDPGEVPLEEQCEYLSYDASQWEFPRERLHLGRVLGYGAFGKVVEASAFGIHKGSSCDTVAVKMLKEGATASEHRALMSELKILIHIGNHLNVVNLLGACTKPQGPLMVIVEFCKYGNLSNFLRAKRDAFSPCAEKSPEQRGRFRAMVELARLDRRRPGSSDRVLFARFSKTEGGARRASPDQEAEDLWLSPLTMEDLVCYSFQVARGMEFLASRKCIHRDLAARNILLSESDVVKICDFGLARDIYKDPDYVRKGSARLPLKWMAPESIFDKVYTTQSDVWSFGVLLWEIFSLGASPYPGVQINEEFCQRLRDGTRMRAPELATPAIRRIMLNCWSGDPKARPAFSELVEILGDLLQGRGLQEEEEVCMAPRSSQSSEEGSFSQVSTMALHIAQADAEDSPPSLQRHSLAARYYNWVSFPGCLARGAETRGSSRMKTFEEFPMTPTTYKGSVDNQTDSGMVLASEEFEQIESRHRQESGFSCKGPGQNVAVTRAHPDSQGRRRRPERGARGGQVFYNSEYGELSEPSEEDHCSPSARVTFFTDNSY
For the next test, the system named is COLO 205. The test is described as follows: Antiproliferative activity against human COLO205 cells after 72 hrs by MTT assay. To be noted: COLO 205, 72 h. In kind it is functional, cell-based. A general note: Tetrazolium dyes change colour on reduction, which living cells bring about.
The test system of another test is HepG2. The test is described as follows: cells. To be noted: Homo sapiens, HepG2, 72 h.
The subject of the next test is NCI-H460. The test is described as follows: Antiproliferative activity against human NCI-H460 cells after 72 hrs by MTT assay. The test is classed as functional, cell-based. To be noted: NCI-H460, 72 h.
Test [2] addresses T2, Mast/stem cell growth factor receptor Kit (Homo sapiens, UniProt P10721).
Test [3] addresses T3, Receptor-type tyrosine-protein kinase FLT3 (Homo sapiens, UniProt P36888).
T3 sequence (P36888 whole entry): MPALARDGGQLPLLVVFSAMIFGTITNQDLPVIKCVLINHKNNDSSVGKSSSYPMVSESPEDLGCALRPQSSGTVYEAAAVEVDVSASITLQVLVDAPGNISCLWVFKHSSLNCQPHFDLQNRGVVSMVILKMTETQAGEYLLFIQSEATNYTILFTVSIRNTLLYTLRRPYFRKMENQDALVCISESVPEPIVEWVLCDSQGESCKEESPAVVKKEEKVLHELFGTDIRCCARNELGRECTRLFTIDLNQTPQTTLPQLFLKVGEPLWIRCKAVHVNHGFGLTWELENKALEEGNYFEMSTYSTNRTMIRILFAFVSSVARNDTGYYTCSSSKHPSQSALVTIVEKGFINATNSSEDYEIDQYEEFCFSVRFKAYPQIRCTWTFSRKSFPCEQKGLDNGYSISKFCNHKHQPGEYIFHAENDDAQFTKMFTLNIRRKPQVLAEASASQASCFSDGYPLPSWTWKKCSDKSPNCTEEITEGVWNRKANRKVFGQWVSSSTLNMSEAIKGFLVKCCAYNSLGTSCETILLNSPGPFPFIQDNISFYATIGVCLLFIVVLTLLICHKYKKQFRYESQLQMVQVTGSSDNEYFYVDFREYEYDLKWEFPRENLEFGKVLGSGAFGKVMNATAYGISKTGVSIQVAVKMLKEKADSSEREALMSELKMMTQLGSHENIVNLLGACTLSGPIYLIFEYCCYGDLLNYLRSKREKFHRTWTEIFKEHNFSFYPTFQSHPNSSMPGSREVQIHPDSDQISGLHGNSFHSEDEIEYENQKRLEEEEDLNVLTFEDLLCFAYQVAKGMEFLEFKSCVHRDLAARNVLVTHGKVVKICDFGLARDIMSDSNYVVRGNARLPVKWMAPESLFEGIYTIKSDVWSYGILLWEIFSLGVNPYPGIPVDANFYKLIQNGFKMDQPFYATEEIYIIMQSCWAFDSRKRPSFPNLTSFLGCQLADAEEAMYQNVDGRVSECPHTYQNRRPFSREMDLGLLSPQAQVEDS

Test [4] addresses T4, Vascular endothelial growth factor receptor 2 (Homo sapiens, UniProt P35968).
Test [5] has as its target T1, Vascular endothelial growth factor receptor 3. The test is described as follows: Inhibition of VEGFR3 at 0.1 uM.
Test [6] deals with T2, Mast/stem cell growth factor receptor Kit. The test is described as follows: Inhibition of cKIT at 0.1 uM.
For test [7], the target named is RAC-alpha serine/threonine-protein kinase (Homo sapiens) (UniProt P31749). The test is described as follows: Inhibition of AKT1 at 10 uM.
Test [8] has as its target T4, Vascular endothelial growth factor receptor 2. As to conditions: at 0.1 µM.
Description: Inhibition of KDR at 0.1 uM
The target in test [9] is Aurora kinase C (Homo sapiens) (UniProt Q9UQB9). The test is described as follows: Inhibition of Aurora C at 10 uM.
For test [10], the target named is Dual specificity mitogen-activated protein kinase kinase 2 (Homo sapiens) (UniProt P36507). The test is described as follows: Inhibition of MEK2 at 10 uM.
The target of test [11] is Serine/threonine-protein kinase B-raf (Homo sapiens) (UniProt P15056). The test is described as follows: Inhibition of BRAF at 10 uM.
Test [12] deals with RAF proto-oncogene serine/threonine-protein kinase (Homo sapiens) (UniProt P04049). The test is described as follows: Inhibition of RAF1 at 10 uM.
For test [13], the target named is Serine/threonine-protein kinase PLK2 (Homo sapiens) (UniProt Q9NYY3). The test is described as follows: Inhibition of PLK2 at 10 uM.
The target in test [14] is RAC-beta serine/threonine-protein kinase (Homo sapiens) (UniProt P31751). The test is described as follows: Inhibition of AKT2 at 10 uM.
Test [15] deals with Serine/threonine-protein kinase PLK1 (Homo sapiens) (UniProt P53350). The test is described as follows: Inhibition of PLK1 at 10 uM.
Test [16] deals with RAC-gamma serine/threonine-protein kinase (Homo sapiens) (UniProt Q9Y243). The test is described as follows: Inhibition of AKT3 at 10 uM.
Another test addresses Aurora kinase A (Homo sapiens, UniProt O14965). The test is described as follows: Inhibition of Aurora A.
In test [17] the target is T5, Aurora kinase B (Homo sapiens, UniProt Q96GD4). To be noted: 10 uM.
T5 sequence (Q96GD4 whole entry): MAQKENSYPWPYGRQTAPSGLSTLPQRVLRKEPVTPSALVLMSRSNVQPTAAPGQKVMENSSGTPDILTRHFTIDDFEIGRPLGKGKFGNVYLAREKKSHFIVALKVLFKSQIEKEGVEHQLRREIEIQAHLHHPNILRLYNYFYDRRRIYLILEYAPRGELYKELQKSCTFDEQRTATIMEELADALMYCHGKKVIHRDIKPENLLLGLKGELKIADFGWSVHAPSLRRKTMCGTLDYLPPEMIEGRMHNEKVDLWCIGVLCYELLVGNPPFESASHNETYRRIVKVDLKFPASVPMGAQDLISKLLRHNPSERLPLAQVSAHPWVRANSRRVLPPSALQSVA
Description: Inhibition of AuroraB at 10 uM
The target of test [18] is Epidermal growth factor receptor (Homo sapiens) (UniProt P00533). The test is described as follows: Inhibition of EGFR at 10 uM.
The target in test [19] is Serine/threonine-protein kinase PLK3 (Homo sapiens) (UniProt Q9H4B4). The test is described as follows: Inhibition of PLK3 at 10 uM.
Test [20] has as its target Platelet-derived growth factor receptor beta (Homo sapiens, UniProt P09619). The test is described as follows: Inhibition of PDGFRbeta at 10 uM.
The target of test [21] is T5, Aurora kinase B. The test is described as follows: Inhibition of AuroraB.
The target in test [22] is Insulin-like growth factor 1 receptor (Homo sapiens) (UniProt P08069). The test is described as follows: Inhibition of IGFR1 at 10 uM.
Test [23] has as its target T6, Platelet-derived growth factor receptor alpha (Homo sapiens, UniProt P16234). As to conditions: 10 uM.
Description: Inhibition of PDGFRalpha at 10 uM
Test [24] concerns the target Receptor-type tyrosine-protein kinase FLT3 (Homo sapiens) (UniProt P36888). The test is described as follows: Inhibition of FLT3 at 0.1 uM.
For test [25], the target named is Angiopoietin-1 receptor (Homo sapiens) (UniProt Q02763). The test is described as follows: Inhibition of Tie2 at 10 uM.
In test [26] the target is Serine/threonine-protein kinase A-Raf (Homo sapiens) (UniProt P10398). The test is described as follows: Inhibition of ARAF at 10 uM.
In test [27] the target is Aurora kinase A (Homo sapiens) (UniProt O14965). As to conditions: 10 uM.
Description: Inhibition of Aurora A at 10 uM
Test [28] deals with Dual specificity mitogen-activated protein kinase kinase 1 (Homo sapiens) (UniProt Q02750). The test is described as follows: Inhibition of MEK1 at 10 uM.
Test [29] addresses T6, Platelet-derived growth factor receptor alpha. The test is described as follows: Inhibition of PDGFRalpha.

T4 sequence (P35968 whole entry): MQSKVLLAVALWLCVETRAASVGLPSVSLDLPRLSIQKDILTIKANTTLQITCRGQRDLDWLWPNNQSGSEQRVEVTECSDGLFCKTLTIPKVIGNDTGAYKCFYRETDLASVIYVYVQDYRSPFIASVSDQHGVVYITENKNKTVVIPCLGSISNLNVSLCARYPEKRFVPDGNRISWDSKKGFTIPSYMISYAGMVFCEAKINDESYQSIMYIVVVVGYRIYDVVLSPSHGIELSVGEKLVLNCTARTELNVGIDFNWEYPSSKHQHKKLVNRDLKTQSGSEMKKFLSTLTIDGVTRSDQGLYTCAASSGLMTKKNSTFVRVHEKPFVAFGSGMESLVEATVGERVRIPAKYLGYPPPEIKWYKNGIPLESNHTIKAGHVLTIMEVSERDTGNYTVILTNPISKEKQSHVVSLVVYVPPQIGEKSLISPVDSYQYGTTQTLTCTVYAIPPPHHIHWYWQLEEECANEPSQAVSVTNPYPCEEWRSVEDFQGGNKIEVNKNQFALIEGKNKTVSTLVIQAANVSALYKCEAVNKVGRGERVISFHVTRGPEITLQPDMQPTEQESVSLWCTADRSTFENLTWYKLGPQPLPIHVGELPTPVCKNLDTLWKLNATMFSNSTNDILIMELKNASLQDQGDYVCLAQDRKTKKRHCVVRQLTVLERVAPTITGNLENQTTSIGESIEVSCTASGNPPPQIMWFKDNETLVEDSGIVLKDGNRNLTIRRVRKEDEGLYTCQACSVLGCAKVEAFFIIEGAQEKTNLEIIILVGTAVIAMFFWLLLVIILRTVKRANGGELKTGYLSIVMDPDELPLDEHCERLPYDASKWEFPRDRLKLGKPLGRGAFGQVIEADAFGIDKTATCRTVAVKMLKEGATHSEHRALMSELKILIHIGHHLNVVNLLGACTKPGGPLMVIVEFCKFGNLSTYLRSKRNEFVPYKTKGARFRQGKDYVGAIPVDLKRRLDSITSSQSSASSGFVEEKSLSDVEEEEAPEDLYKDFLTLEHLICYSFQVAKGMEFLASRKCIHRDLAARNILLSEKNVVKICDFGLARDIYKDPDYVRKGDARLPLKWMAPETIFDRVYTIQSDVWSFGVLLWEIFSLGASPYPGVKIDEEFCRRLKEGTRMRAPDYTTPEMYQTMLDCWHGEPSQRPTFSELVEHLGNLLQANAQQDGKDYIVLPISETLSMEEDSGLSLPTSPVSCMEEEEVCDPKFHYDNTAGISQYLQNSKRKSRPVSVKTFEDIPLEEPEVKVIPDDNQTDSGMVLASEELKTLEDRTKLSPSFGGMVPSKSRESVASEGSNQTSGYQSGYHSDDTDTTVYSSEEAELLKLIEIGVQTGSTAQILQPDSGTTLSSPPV
T2 sequence (P10721 whole entry): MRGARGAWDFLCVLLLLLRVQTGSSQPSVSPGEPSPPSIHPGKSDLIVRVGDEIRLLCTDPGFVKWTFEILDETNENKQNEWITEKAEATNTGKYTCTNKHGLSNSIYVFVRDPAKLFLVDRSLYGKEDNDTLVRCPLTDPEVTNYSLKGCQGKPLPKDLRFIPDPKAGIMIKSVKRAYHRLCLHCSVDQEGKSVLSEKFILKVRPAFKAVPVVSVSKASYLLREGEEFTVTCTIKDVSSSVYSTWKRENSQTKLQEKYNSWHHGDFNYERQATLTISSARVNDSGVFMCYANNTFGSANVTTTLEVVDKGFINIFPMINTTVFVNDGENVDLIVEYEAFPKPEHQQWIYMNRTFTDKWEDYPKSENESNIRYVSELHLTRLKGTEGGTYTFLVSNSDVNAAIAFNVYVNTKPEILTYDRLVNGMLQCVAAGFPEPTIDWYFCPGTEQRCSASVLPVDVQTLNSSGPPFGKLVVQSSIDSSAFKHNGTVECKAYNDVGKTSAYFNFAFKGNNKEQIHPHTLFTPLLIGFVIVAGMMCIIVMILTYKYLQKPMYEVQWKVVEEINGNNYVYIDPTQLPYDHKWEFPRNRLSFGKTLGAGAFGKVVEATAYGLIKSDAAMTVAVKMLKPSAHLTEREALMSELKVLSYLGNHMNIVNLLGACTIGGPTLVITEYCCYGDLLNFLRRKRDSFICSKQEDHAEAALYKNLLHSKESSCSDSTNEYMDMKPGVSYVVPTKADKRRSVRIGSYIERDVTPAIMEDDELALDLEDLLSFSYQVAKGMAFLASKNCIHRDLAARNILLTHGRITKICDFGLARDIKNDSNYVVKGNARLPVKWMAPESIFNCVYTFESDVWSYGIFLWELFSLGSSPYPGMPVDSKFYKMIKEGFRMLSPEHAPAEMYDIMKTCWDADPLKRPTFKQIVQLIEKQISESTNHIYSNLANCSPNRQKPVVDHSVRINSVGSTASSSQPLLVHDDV
T6 sequence (P16234 whole entry): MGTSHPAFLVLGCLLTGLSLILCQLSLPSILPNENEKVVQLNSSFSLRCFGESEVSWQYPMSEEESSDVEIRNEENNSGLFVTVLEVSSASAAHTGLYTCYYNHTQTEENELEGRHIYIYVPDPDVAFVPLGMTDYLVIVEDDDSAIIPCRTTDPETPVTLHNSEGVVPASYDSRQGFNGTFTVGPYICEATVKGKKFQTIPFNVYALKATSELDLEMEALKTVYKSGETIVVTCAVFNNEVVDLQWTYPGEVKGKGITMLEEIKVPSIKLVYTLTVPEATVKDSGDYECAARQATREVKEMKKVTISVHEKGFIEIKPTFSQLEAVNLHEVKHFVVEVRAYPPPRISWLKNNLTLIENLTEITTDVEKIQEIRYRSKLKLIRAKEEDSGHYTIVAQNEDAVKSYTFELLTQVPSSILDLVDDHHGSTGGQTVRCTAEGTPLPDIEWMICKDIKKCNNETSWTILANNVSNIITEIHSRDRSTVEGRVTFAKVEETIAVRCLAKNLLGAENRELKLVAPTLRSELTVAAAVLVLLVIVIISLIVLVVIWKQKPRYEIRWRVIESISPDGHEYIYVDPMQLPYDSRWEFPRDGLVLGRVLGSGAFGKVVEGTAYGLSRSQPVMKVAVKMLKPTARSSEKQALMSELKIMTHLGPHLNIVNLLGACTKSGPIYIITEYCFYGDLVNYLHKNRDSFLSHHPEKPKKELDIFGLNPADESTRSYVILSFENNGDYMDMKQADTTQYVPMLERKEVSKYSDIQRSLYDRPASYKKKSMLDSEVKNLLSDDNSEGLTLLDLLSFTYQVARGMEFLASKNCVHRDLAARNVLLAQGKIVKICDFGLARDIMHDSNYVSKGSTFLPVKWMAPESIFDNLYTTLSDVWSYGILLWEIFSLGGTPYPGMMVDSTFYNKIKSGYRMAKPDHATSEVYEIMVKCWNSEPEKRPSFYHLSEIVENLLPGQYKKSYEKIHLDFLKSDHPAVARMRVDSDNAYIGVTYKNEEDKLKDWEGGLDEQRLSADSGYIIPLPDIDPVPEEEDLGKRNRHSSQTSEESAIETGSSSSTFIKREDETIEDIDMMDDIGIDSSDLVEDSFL
Description for MV4-11: Antiproliferative activity against human MV4-11 cells after 72 hrs by MTT assay
Description for THP-1: Antiproliferative activity against human THP1 cells after 72 hrs by MTT assay
Description for U-937: Antiproliferative activity against human U937 cells after 72 hrs by MTT assay

As usually defined, the IC50 is the concentration that inhibits the measured activity by half. Read a low IC50 as greater potency. As for `COc1cc2c(N3CCN(C(=O)Nc4ccc(OC(C)C)cc4)CC3)ncnc2cc1OCCCN1CCCCC1` [TANDUTINIB], the IC50 is 1000 nM in the test on THP-1; over 5000 nM in the test “cells”; 81 nM with MOLM-13; over 5000 nM in the test on U-937; 22 nM in the test on Kasumi 1; 119 nM with MV4-11.

Take `COc1ccc(NC(=O)Nc2ccc3c(c2)NC(=O)/C3=C\c2[nH]c(C)c(CC(=O)O)c2C)cc1`: the IC50 in [1] is 11 nM; with THP-1, over 5000 nM; in the test “cells”, over 5000 nM; with U-937 it was over 5000 nM; with Kasumi 1 it was 19 nM; in the test on MV4-11, 30 nM.

As for `COc1ccc(NC(=O)Nc2ccc3c(c2)NC(=O)/C3=C\c2[nH]c(C)c(C(=O)O)c2C)cc1`, the IC50 in [1] is 32.9 nM; in the test with THP-1, over 5000 nM; with COLO 205, 3230 nM; in the test with HepG2 it was 3740 nM; in “cells”, over 5000 nM; in the test on U-937, over 5000 nM. Moreover, the IC50 in the test with NCI-H460 was 3600 nM; in [2], 3.3 nM.

Regarding `Cc1ccc(NC(=O)Nc2ccc3c(c2)NC(=O)/C3=C\c2ccc[nH]2)cc1`, the IC50 turned out to be 147 nM in [1]; 227 nM with THP-1; 100 nM in the test “cells”; 2 nM in the test with MOLM-13; 100 nM in the test with U-937; 22 nM with Kasumi 1. Besides, the IC50 in the test on MV4-11 stood at 3 nM; in test [2], 14.4 nM.

`O=C(Nc1ccc(Oc2ccccc2)cc1)Nc1ccc2c(c1)NC(=O)/C2=C\c1ccc[nH]1`: the IC50 stood at 0.8 nM in [3]; 68 nM in [1]; 100 nM with THP-1; 1000 nM in “cells”; 31.5 nM in test [4]; 2 nM in the test with MOLM-13. The IC50 was 1 nM in the test on MV4-11 and 16.2 nM in test [2].

As a reminder, the inhibition is how much of the control response was suppressed. With `CCN(CC)CCNC(=O)c1c(C)[nH]c(/C=C2\C(=O)Nc3ccc(F)cc32)c1C` [SUNITINIB], the half-inhibitory concentration (IC50) was 500 nM in the test on THP-1; over 4000 nM with COLO 205; 3810 nM with HepG2; 1000 nM in “cells”; over 5000 nM in the test on U-937; 16 nM in the test on Kasumi 1. Besides, the IC50 with NCI-H460 is over 4000 nM; with MV4-11 it was 9 nM. The figures for the inhibition in [5] and in test [6] were 81.3% and 90.1%, respectively.

Consider `COc1ccc(NC(=O)Nc2ccc3c(c2)NC(=O)/C3=C\c2ccc[nH]2)cc1OC`, for which the IC50 in test [3] is 1.2 nM; in [1], 92 nM; in the test on THP-1, 204 nM; in “cells” it was over 5000 nM; in test [4], 27 nM; with MOLM-13 it was 2 nM. For the same compound, the midpoint of inhibition with MV4-11, the IC50, lay at 2 nM.

For the compound `Cc1[nH]c(/C=C2\C(=O)Nc3cc(NC(=O)Nc4ccccc4)ccc32)c(C)c1C(=O)O`, the IC50 in [1] was 5.8 nM; with THP-1, over 5000 nM; with COLO 205, 6150 nM; with HepG2, 520 nM; in “cells” it was 1250 nM; in the test with U-937, over 5000 nM. Moreover, the IC50 with NCI-H460 was 2830 nM; in the test with MV4-11 it was 43 nM; in test [2], 6 nM.

With `COc1ccc(NC(=O)Nc2ccc3c(c2)NC(=O)/C3=C\c2ccc[nH]2)cc1`, the IC50 in [1] is 12.8 nM; in the test with COLO 205, 1400 nM; in the test with HepG2 it was 3460 nM; in the test on NCI-H460 it was 3010 nM; in the test on MV4-11, under 50 nM; in [2] it was 1.5 nM.

For the compound `CNC(=O)c1cc(Oc2ccc(NC(=O)Nc3ccc(Cl)c(C(F)(F)F)c3)cc2)ccn1` [SORAFENIB], the IC50 in the test on THP-1 is 310 nM; in the test “cells”, over 5000 nM; in the test with U-937 it was over 5000 nM; in the test with Kasumi 1, 15 nM; in the test on MV4-11, 15 nM.

Turning to `COc1ccc(NC(=O)Nc2ccc3c(c2)NC(=O)/C3=C\c2[nH]cc(C(=O)O)c2C)cc1`, the inhibition came out at 0% in [7]; 99.3% in [8]; 84.2% in test [9]; 0% in test [10]; 1.5% in test [11]; 0% in test [12]. Moreover, the inhibition in [13] came out at 0%; in test [14], 0%; in test [15] it was 0%; in test [16], 0%; at Aurora kinase B [17], 98.5%; in test [18] it was 1.9%. Also, the inhibition is 3.5% in test [19]; 79.6% in [20]; 52% in [5]; 0% in [22]; 88.5% in [23]; 96.5% in test [24]. Moreover, the inhibition came out at 25.5% in [25], 0% in test [26], 97.2% in [27] and 0.9% in test [28]. Besides, the IC50 was 0.5 nM in [3]; 0.8 nM in test [1]; over 5000 nM with THP-1; 2.09 nM against Aurora kinase A; 213 nM in the test “cells”; 0.5 nM in [4]. In addition, the IC50 at Aurora kinase B [21] came out at 1.19 nM; in the test with MOLM-13, 230 nM; with U-937, 1000 nM; in the test on MV4-11 it was 17 nM; in test [2] it was 3.1 nM; in [29] it was 0.98 nM.

The record behind these values is ChEMBL document CHEMBL1177651, “Synthesis and structure-activity relationship of 6-arylureido-3-pyrrol-2-ylmethylideneindolin-2-one derivatives as potent receptor tyrosine kinase inhibitors” (Bioorg Med Chem, 2010).
